Results taken from patent US20240376084A1, “INHIBITORS OF ALPHA-HEMOLYSIN OF STAPHYLOCOCCUS AUREUS” (Helmholtz-Zentrum Fur Infektionsforschung GmbH, priority 2021, published 2024).

Biological target: hemolysin alpha from Staphylococcus aureus (Staphylococcus aureus, UniProt P09616)
Assay: cell-based

Chain of hemolysin alpha from Staphylococcus aureus (P09616 27-319 limits assumed): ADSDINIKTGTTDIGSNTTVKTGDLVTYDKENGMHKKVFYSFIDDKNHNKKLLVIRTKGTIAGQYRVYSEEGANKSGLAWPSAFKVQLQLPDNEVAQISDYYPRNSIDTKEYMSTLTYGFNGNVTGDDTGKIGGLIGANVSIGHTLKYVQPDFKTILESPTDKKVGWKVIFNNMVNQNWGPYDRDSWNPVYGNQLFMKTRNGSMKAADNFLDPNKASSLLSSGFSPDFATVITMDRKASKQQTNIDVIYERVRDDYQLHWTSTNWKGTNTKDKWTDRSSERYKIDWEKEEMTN

Row | SMILES | IC50 [nM] | EC50 [nM]
1 | Cc1cc(NS(=O)(=O)c2cc3[nH]c(=O)c(=O)[nH]c3cc2F)cc(C)c1-c1ccoc1 [Compound 166, 7-fluoro-N-(4-(furan-3-yl)-3,5-dimethylphenyl)-2,3-dioxo-1,2,3,4-tetrahydroquinoxaline-6-sulfonamide] | 100 to 1000 | –
2 | Cc1cc(NS(=O)(=O)c2cc3[nH]c(=O)c(=O)[nH]c3cc2Cl)cc(C)c1Br [Compound 145, N-(4-bromo-3,5-dimethylphenyl)-7-chloro-2,3-dioxo-1,2,3,4-tetrahydroquinoxaline-6-sulfonamide] | 100 to 1000 | –
3 | Cc1nc2ccc(NS(=O)(=O)c3cc4[nH]c(=O)c(=O)[nH]c4cc3C)cc2s1 [Compound 239, 7-methyl-N-(2-methylbenzo[d]thiazol-6-yl)-2,3-dioxo-1,2,3,4-tetrahydroquinoxaline-6-sulfonamide] | – | 1000 to 3500
4 | Cc1cc2[nH]c(=O)c(=O)[nH]c2cc1S(=O)(=O)Nc1cnc(-c2cccc(Cl)c2)c(Cl)c1 [Compound 213, N-(5-chloro-6-(3-chlorophenyl)pyridin-3-yl)-7-methyl-2,3-dioxo-1,2,3,4-tetrahydroquinoxaline-6-sulfonamide] | – | 100 to 1000
5 | CC(C)c1cc2[nH]c(=O)c(=O)[nH]c2cc1S(=O)(=O)Nc1ccc(-c2ccoc2)c(Cl)c1 [Compound 161, N-(3-chloro-4-(furan-3-yl)phenyl)-7-isopropyl-2,3-dioxo-1,2,3,4-tetrahydroquinoxaline-6-sulfonamide] | 100 to 1000 | –
6 | CC(C)c1cc2[nH]c(=O)c(=O)[nH]c2cc1S(=O)(=O)Nc1ccc(C2CC2)cc1 [Compound 153, N-(4-cyclopropylphenyl)-7-isopropyl-2,3-dioxo-1,2,3,4-tetrahydroquinoxaline-6-sulfonamide] | 100 to 1000 | –
7 | COc1ccc(-c2ccc(NS(=O)(=O)c3cc4[nH]c(=O)c(=O)[nH]c4cc3C)cc2Cl)cc1C(N)=O [Compound 395, 5-[2-chloro-4-[(7-methyl-2,3-dioxo-1,4-dihydroquinoxalin-6-yl)sulfonylamino]phenyl]-2-methoxy-benzamide] | – | 1000 to 3500
8 | O=c1[nH]c2cc(F)c(S(=O)(=O)Nc3ccc(Br)c(Cl)c3)cc2[nH]c1=O [Compound 148, N-(4-bromo-3-chlorophenyl)-7-fluoro-2,3-dioxo-1,2,3,4-tetrahydroquinoxaline-6-sulfonamide] | 100 to 1000 | –
9 | Cc1cc2[nH]c(=O)c(=O)[nH]c2cc1S(=O)(=O)Nc1cc(Cl)c(-c2ccc(F)cc2)cn1 [Compound 212, N-(4-chloro-5-(4-fluorophenyl)pyridin-2-yl)-7-methyl-2,3-dioxo-1,2,3,4-tetrahydroquinoxaline-6-sulfonamide] | – | 30 to 100
10 | Cc1cc2[nH]c(=O)c(=O)[nH]c2cc1S(=O)(=O)Nc1ccc2c(c1)OCCO2 [Compound 242, N-(2,3-dihydrobenzo[b][1,4]dioxin-6-yl)-7-methyl-2,3-dioxo-1,2,3,4-tetrahydroquinoxaline-6-sulfonamide] | – | 100 to 1000
11 | Cc1cc2[nH]c(=O)c(=O)[nH]c2cc1S(=O)(=O)Nc1ccc(N(C)C)cc1 [Compound 133, N-(4-(dimethylamino)phenyl)-7-methyl-2,3-dioxo-1,2,3,4-tetrahydroquinoxaline-6-sulfonamide] | 100 to 1000 | –
12 | Cc1cc2[nH]c(=O)c(=O)[nH]c2cc1S(=O)(=O)Nc1cc(C)c(-c2ccncc2)c(C)c1 [Compound 131, N-(3,5-dimethyl-4-(pyridin-4-yl)phenyl)-7-methyl-2,3-dioxo-1,2,3,4-tetrahydroquinoxaline-6-sulfonamide] | 100 to 1000 | –
13 | CC(C)c1cc2[nH]c(=O)c(=O)[nH]c2cc1S(=O)(=O)Nc1ccc(Br)c(Cl)c1 [Compound 154, N-(4-bromo-3-chlorophenyl)-7-isopropyl-2,3-dioxo-1,2,3,4-tetrahydroquinoxaline-6-sulfonamide] | 100 to 1000 | –
14 | Cc1cc2[nH]c(=O)c(=O)[nH]c2cc1S(=O)(=O)Nc1ccc2c(c1)OC(F)(F)O2 [Compound 241, N-(2,2-difluorobenzo[d][1,3]dioxol-5-yl)-7-methyl-2,3-dioxo-1,2,3,4-tetrahydroquinoxaline-6-sulfonamide] | – | 100 to 1000
15 | Cc1cc2[nH]c(=O)c(=O)[nH]c2cc1S(=O)(=O)Nc1ccc(C#N)cc1 [Compound 129, N-(4-cyanophenyl)-7-methyl-2,3-dioxo-1,2,3,4-tetrahydroquinoxaline-6-sulfonamide] | 1000 to 3500 | –
16 | O=c1[nH]c2cc(Br)c(S(=O)(=O)Nc3ccc(C4CC4)cc3)cc2[nH]c1=O [Compound 96, 7-bromo-N-(4-cyclopropylphenyl)-2,3-dioxo-1,2,3,4-tetrahydroquinoxaline-6-sulfonamide] | 100 to 1000 | –
17 | Cc1ccc(-c2ccc(NS(=O)(=O)c3cc4[nH]c(=O)c(=O)[nH]c4cc3C)cc2)c(C)c1 [Compound 118, N-(2′,4′-dimethyl-[1,1′-biphenyl]-4-yl)-7-methyl-2,3-dioxo-1,2,3,4-tetrahydroquinoxaline-6-sulfonamide] | 100 to 1000 | –
18 | Cc1cc2[nH]c(=O)c(=O)[nH]c2cc1S(=O)(=O)Nc1ccc(N2CCCOCC2)c(Cl)c1 [Compound 208, N-(3-chloro-4-(1,4-oxazepan-4-yl)phenyl)-7-methyl-2,3-dioxo-1,2,3,4-tetrahydroquinoxaline-6-sulfonamide] | – | 1000 to 3500

Row | SMILES | IC50 [nM] | EC50 [nM]
19 | Cc1cc2[nH]c(=O)c(=O)[nH]c2cc1S(=O)(=O)Nc1ccc(F)c(Cl)c1 [Compound 183, N-(3-chloro-4-fluorophenyl)-7-methyl-2,3-dioxo-1,2,3,4-tetrahydroquinoxaline-6-sulfonamide] | 1000 to 3500 | –
20 | Cc1cc(NS(=O)(=O)c2cc3[nH]c(=O)c(=O)[nH]c3cc2Cl)cc(C)c1-c1ccoc1 [Compound 156, 7-chloro-N-(4-(furan-3-yl)-3,5-dimethylphenyl)-2,3-dioxo-1,2,3,4-tetrahydroquinoxaline-6-sulfonamide] | 100 to 1000 | –
21 | CC(C)c1cc2[nH]c(=O)c(=O)[nH]c2cc1S(=O)(=O)Nc1ccc(-c2cccc(Cl)c2)c(Cl)c1 [Compound 178, N-(2,3′-dichloro-[1,1′-biphenyl]-4-yl)-7-isopropyl-2,3-dioxo-1,2,3,4-tetrahydroquinoxaline-6-sulfonamide] | 100 to 1000 | –
22 | Cc1cc2[nH]c(=O)c(=O)[nH]c2cc1S(=O)(=O)Nc1cnc(-c2ccc(F)cc2)c(Cl)c1 [Compound 215, N-(5-chloro-6-(4-fluorophenyl)pyridin-3-yl)-7-methyl-2,3-dioxo-1,2,3,4-tetrahydroquinoxaline-6-sulfonamide] | – | 30 to 100
23 | O=c1[nH]c2cc(F)c(S(=O)(=O)Nc3ccc(C(F)(F)F)c(Cl)c3)cc2[nH]c1=O [Compound 165, N-(3-chloro-4-(trifluoromethyl)phenyl)-7-fluoro-2,3-dioxo-1,2,3,4-tetrahydroquinoxaline-6-sulfonamide] | 1000 to 3500 | –
24 | Cc1cc2[nH]c(=O)c(=O)[nH]c2cc1S(=O)(=O)Nc1ccc(OC(F)(F)F)cn1 [Compound 222, 7-methyl-2,3-dioxo-N-(5-(trifluoromethoxy)pyridin-2-yl)-1,2,3,4-tetrahydroquinoxaline-6-sulfonamide] | – | 100 to 1000
25 | Cc1ccc(-c2ccc(NS(=O)(=O)c3cc4[nH]c(=O)c(=O)[nH]c4cc3F)cc2Cl)o1 [Compound 158, N-(3-chloro-4-(5-methylfuran-2-yl)phenyl)-7-fluoro-2,3-dioxo-1,2,3,4-tetrahydroquinoxaline-6-sulfonamide] | 100 to 1000 | –
26 | O=c1[nH]c2cc3c(cc2[nH]c1=O)S(=O)(=O)N(c1ccc(OC(F)(F)F)cc1)CCO3 [Compound 237] | – | 100 to 1000
27 | Cc1cc(NS(=O)(=O)c2cc3[nH]c(=O)c(=O)[nH]c3cc2F)ccc1-c1ccncc1 [Compound 169, 7-fluoro-N-(3-methyl-4-(pyridin-4-yl)phenyl)-2,3-dioxo-1,2,3,4-tetrahydroquinoxaline-6-sulfonamide] | 100 to 1000 | –
28 | O=c1[nH]c2cc(OC(F)(F)F)c(S(=O)(=O)Nc3ccc(OC(F)(F)F)cc3)cc2[nH]c1=O [Compound 192, 2,3-dioxo-7-(trifluoromethoxy)-N-(4-(trifluoromethoxy)phenyl)-1,2,3,4-tetrahydroquinoxaline-6-sulfonamide] | – | 100 to 1000
29 | Cc1cc2[nH]c(=O)c(=O)[nH]c2cc1S(=O)(=O)Nc1ccc(OC(F)(F)F)nc1 [Compound 223, 7-methyl-2,3-dioxo-N-(6-(trifluoromethoxy)pyridin-3-yl)-1,2,3,4-tetrahydroquinoxaline-6-sulfonamide] | – | 100 to 1000
30 | Cc1cc2[nH]c(=O)c(=O)[nH]c2cc1S(=O)(=O)Nc1ccc(N2CCOCC2C)c(Cl)c1 (stereo not drawn) [Compound 201, N-(3-chloro-4-(3-methylmorpholino)phenyl)-7-methyl-2,3-dioxo-1,2,3,4-tetrahydroquinoxaline-6-sulfonamide] | – | 100 to 1000
31 | Cc1cc2[nH]c(=O)c(=O)[nH]c2cc1S(=O)(=O)Nc1nc(C)c(-c2ccccc2)s1 [Compound 240, 7-methyl-N-(4-methyl-5-phenylthiazol-2-yl)-2,3-dioxo-1,2,3,4-tetrahydroquinoxaline-6-sulfonamide] | – | 1000 to 3500
32 | Cc1cc2[nH]c(=O)c(=O)[nH]c2cc1S(=O)(=O)Nc1cnc(Br)c(Cl)c1 [Compound 236, N-(6-bromo-5-chloropyridin-3-yl)-7-methyl-2,3-dioxo-1,2,3,4-tetrahydroquinoxaline-6-sulfonamide] | – | 1000 to 3500
33 | Cc1cc2[nH]c(=O)c(=O)[nH]c2cc1S(=O)(=O)Nc1cc(Cl)c(Br)cn1 [Compound 226, N-(5-bromo-4-chloropyridin-2-yl)-7-methyl-2,3-dioxo-1,2,3,4-tetrahydroquinoxaline-6-sulfonamide] | – | 1000 to 3500
34 | Cc1cc(NS(=O)(=O)c2cc3[nH]c(=O)c(=O)[nH]c3cc2F)cc(C)c1-c1ccncc1 [Compound 167, N-(3,5-dimethyl-4-(pyridin-4-yl)phenyl)-7-fluoro-2,3-dioxo-1,2,3,4-tetrahydroquinoxaline-6-sulfonamide] | 1000 to 3500 | –
35 | Cc1ccc(NS(=O)(=O)c2cc3[nH]c(=O)c(=O)[nH]c3cc2C)cc1 [Compound 179, 7-methyl-2,3-dioxo-N-(p-tolyl)-1,2,3,4-tetrahydroquinoxaline-6-sulfonamide] | 100 to 1000 | –
36 | Cc1cc2[nH]c(=O)c(=O)[nH]c2cc1S(=O)(=O)Nc1nc2ccccc2s1 [Compound 238, N-(benzo[d]thiazol-2-yl)-7-methyl-2,3-dioxo-1,2,3,4-tetrahydroquinoxaline-6-sulfonamide] | – | 100 to 1000
